Converted amounts (≈) assume the structure as drawn.
Columns and labels:
[1] = Lipophilicity, log D of the compound by HPLC analysis; assay type: physicochemical
serum albumin [2] = molecular target: serum albumin (Rattus norvegicus, UniProt P02770); assay: Binding affinity to rat serum albumin; assay type: ADME; settings: read-out: PB (converted)
[3] = Aqueous solubility of the compound by HPLC analysis; assay type: physicochemical
serum albumin [4] = molecular target: serum albumin (Homo sapiens, UniProt P02768); assay: Binding affinity to human serum albumin; assay type: ADME; settings: read-out: PB (converted)
Oxytocin receptor = molecular target: T1, Oxytocin receptor (Homo sapiens, UniProt P30559); assay: Displacement of [3H]oxytocin from human oxytocin receptor
T1 sequence (P30559 whole entry): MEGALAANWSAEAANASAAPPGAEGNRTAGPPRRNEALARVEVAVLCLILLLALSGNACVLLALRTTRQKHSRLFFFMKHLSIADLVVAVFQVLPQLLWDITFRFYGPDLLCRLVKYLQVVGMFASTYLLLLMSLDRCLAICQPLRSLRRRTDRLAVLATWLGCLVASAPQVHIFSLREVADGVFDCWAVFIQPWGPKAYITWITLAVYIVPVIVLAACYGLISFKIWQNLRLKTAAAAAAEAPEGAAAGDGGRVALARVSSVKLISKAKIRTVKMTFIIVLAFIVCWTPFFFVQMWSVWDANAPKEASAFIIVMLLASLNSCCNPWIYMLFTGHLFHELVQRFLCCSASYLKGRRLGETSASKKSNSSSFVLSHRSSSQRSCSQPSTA

[5] = AUC in rat at 5 mg/kg, po; assay type: ADME, organism-based; design: dose 5 mg/kg, route oral; settings: plasma
Liver = assay: Intrinsic clearance in dog liver microsomes; assay type: ADME, Canis lupus familiaris, Microsome
Liver microsomes [6] = assay: Intrinsic clearance in rat liver microsomes; assay type: ADME, Microsome
[7] = Intrinsic clearance in cynomolgus monkey liver microsomes; assay type: ADME, Macaca fascicularis, Microsome
Liver microsomes [8] = assay: Intrinsic clearance in human liver microsomes; assay type: ADME, Microsome
[9] = Clearance in rat at 5 mg/kg; assay type: ADME, organism-based; design: dose 5 mg/kg; settings: in vivo
[10] = Oral bioavailability in rat at 5 mg/kg; assay type: ADME, organism-based; settings: in vivo
[11] = Oral bioavailability in dog at 0.6 mg/kg; assay type: ADME, organism-based, Canis lupus familiaris; settings: in vivo
[12] = Clearance in dog at 0.6 mg/kg; assay type: ADME, organism-based, Canis lupus familiaris; design: dose 0.6 mg/kg; settings: in vivo
[13] = AUC in dog at 0.6 mg/kg, po; assay type: ADME, organism-based, Canis lupus familiaris; design: dose 0.6 mg/kg, route oral; settings: plasma

Sequence of serum albumin (Rattus norvegicus, UniProt P02770) (P02770 whole entry): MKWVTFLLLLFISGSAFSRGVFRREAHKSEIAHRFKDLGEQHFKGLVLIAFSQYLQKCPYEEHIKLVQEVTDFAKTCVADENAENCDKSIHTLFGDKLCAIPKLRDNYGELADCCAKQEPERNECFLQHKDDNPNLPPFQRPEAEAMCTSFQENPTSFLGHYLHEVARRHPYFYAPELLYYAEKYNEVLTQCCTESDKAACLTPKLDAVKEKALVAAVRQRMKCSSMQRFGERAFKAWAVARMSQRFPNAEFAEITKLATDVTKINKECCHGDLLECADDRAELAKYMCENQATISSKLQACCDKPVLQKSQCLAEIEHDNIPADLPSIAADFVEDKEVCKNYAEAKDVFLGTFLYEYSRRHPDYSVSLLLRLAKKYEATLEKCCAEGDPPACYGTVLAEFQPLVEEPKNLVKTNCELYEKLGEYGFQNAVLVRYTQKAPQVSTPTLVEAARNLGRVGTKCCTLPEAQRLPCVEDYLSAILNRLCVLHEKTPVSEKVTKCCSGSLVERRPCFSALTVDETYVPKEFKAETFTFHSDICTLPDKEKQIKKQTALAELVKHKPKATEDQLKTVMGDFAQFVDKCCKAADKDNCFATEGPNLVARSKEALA
Sequence of serum albumin (Homo sapiens, UniProt P02768) (P02768 whole entry): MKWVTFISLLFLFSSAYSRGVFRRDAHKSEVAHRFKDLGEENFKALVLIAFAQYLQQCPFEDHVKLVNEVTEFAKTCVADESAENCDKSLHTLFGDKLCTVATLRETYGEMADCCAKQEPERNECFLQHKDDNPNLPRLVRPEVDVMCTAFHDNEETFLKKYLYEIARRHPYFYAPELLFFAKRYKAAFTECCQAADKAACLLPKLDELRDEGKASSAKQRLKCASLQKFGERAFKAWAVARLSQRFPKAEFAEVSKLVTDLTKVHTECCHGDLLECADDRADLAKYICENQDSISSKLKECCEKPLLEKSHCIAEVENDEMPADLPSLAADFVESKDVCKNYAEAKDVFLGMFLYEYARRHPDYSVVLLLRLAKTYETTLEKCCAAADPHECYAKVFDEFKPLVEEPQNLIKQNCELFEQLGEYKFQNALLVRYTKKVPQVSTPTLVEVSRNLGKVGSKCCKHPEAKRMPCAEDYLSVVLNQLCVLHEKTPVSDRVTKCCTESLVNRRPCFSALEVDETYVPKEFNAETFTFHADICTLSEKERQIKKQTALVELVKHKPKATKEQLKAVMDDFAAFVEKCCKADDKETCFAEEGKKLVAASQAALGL

Row | SMILES | logD [1] | fraction unbound (serum albumin [2]) | solubility [3] [µg/mL] | fraction unbound (serum albumin [4]) | Ki (Oxytocin receptor) [nM] | AUC [5] [ng·h/mL] | CLH (Liver) [mL/min/g] | CLH (Liver microsomes [6]) [mL/min/g] | CLH [7] [mL/min/g] | CLH (Liver microsomes [8]) [mL/min/g] | clearance [9] [mL/min/kg] | bioavailability [10] [%] | bioavailability [11] [%] | clearance [12] [mL/min/kg] | AUC [13] [ng·h/mL]
1 | CC(C)C[C@@H]1C(=O)N[C@H](C2Cc3ccccc3C2)C(=O)N1[C@@H](C(=O)N(C)C)c1ccc(=O)[nH]c1 | 1.3 | 0.63 | > 240 | 0.39 | 3.16 |  |  |  |  |  |  |  |  |  | 
2 | Cc1ccc([C@H](C(=O)N(C)C)N2C(=O)[C@@H](C3Cc4ccccc4C3)NC(=O)[C@H]2CC2CC2)cn1 |  |  | 230 (≈ 499 µM) |  | 5.01 |  |  |  |  |  |  |  |  |  | 
3 | Cc1ccc([C@H](C(=O)N2CCOCC2)N2C(=O)[C@@H](C3Cc4ccccc4C3)NC(=O)[C@H]2CC2CC2)cn1 |  |  | > 258 |  | 5.01 |  |  |  |  |  |  |  |  |  | 
4 | Cc1ccc([C@H](C(=O)N(C)C)N2C(=O)[C@@H](C3Cc4ccccc4C3)NC(=O)[C@H]2CC(C)(C)C)cn1 |  |  | > 242 |  | 0.0631 | 618 | 1 | 3 | 8 | 6 |  |  |  |  | 
5 | Cc1ccc([C@H](C(=O)N2CCOCC2)N2C(=O)[C@@H](C3Cc4ccccc4C3)NC(=O)[C@H]2CC(C)(C)C)cn1 |  |  | 213 (≈ 411 µM) |  | 0.0794 | 770 | 9 | 1 | 21 | 4 | 20 | 18 | 5 | 24 | 21
6 | CC[C@@H](C)[C@@H]1C(=O)N[C@H](C2Cc3ccccc3C2)C(=O)N1[C@@H](C(=O)N(C)C)c1ccc(C)nc1 |  |  | > 237 |  | 1 | 3360 | 1 | 1 | 11 | 3 | 23 | 82 |  |  | 
7 | CC[C@H](C)[C@@H]1C(=O)N[C@H](C2Cc3ccccc3C2)C(=O)N1[C@@H](C(=O)N(C)C)c1ccc(C)nc1 |  |  | > 254 |  | 0.2 | 2270 | 1 | 1 | 9 | 2 | 19 | 62 | 39 | 10 | 347
8 | CC[C@@H](C)[C@@H]1C(=O)N[C@H](C2Cc3ccccc3C2)C(=O)N1[C@@H](C(=O)N1CCOCC1)c1ccc(C)nc1 |  |  | > 280 |  | 0.501 | 1590 | 2 | 1 | 8 | 4 | 39 | 44 | 31 | 20 | 138
9 | CC[C@H](C)[C@@H]1C(=O)N[C@H](C2Cc3ccccc3C2)C(=O)N1[C@@H](C(=O)N1CCOCC1)c1ccc(C)nc1 |  |  | > 268 |  | 0.158 | 1450 | 2 | 1 | 6 | 3 | 27 | 54 | 14 | 23 | 55
10 | CC[C@H](C)[C@@H]1C(=O)N[C@H](C2Cc3ccccc3C2)C(=O)N1[C@@H](C(=O)N(C)C)c1ccc(C)[n+]([O-])c1 |  |  | > 242 |  | 1 | 24 |  | 1 | 1 | 1 | 28 | < 1 | 11 | 14 | 73
11 | CC[C@H](C)[C@@H]1C(=O)N[C@H](C2Cc3ccccc3C2)C(=O)N1[C@@H](C(=O)NC)c1cc(C)cnc1C |  |  |  |  | 1.26 |  | 3 | 1 | 5 | 3 |  |  |  |  | 
12 | CC[C@H](C)[C@@H]1C(=O)N[C@H](C2Cc3ccccc3C2)C(=O)N1[C@@H](C(=O)N(C)C)c1cc(C)cnc1C |  |  |  |  | 0.794 | 1370 | 2 | 1 | 13 | 5 |  |  |  |  | 
13 | CC[C@H](C)[C@@H]1C(=O)N[C@H](C2Cc3ccccc3C2)C(=O)N1[C@@H](C(=O)N1CCOCC1)c1cc(C)cnc1C |  |  |  |  | 0.794 |  |  |  |  |  |  |  |  |  | 
14 | CC[C@H](C)[C@@H]1C(=O)N[C@H](C2Cc3ccccc3C2)C(=O)N1[C@@H](C(=O)NC)c1cnc(C)cc1C |  |  |  |  | 0.0631 | 407 | 4 | 1 | 20 | 7 | 23 | 11 |  |  | 
15 | CC[C@H](C)[C@@H]1C(=O)N[C@H](C2Cc3ccccc3C2)C(=O)N1[C@@H](C(=O)N(C)C)c1cnc(C)cc1C |  |  |  |  | 0.0398 | 2680 | 1 | 1 | 32 | 9 |  |  | 17 | 12 | 140
16 | CC[C@H](C)[C@@H]1C(=O)N[C@H](C2Cc3ccccc3C2)C(=O)N1[C@@H](C(=O)N1CCOCC1)c1cnc(C)cc1C |  |  |  |  | 0.0501 | 1110 | 4 | 1 | 16 | 1 |  |  |  |  | 
17 | CC[C@H](C)[C@@H]1C(=O)N[C@H](C2Cc3ccccc3C2)C(=O)N1[C@@H](C(=O)NC)c1ccc(C)nc1C |  |  |  |  | 0.398 | 1730 | 5 | 1 | 6 | 5 | 25 | 51 | 13 | 22 | 58
18 | CCC(CC)[C@@H]1C(=O)N[C@H](C2Cc3ccccc3C2)C(=O)N1[C@@H](C(=O)N(C)C)c1ccc(C)nc1 |  |  |  |  | 0.0501 | 1810 | 1 | 2 | 12 | 11 | 20 | 36 | 47 | 19 | 255
19 | CCC(CC)[C@@H]1C(=O)N[C@H](C2Cc3ccccc3C2)C(=O)N1[C@@H](C(=O)N1CCOCC1)c1ccc(C)nc1 |  |  |  |  | 0.0251 | 1380 | 5 | 1 | 18 | 12 | 23 | 55 |  |  | 
20 | CCC(CC)[C@@H]1C(=O)N[C@H](C2Cc3ccccc3C2)C(=O)N1[C@@H](C(=O)NC)c1ccc(C)nc1C |  |  |  |  | 0.0501 | 1240 |  | 2 | 31 |  |  |  |  |  | 
21 | CCC(CC)[C@@H]1C(=O)N[C@H](C2Cc3ccccc3C2)C(=O)N1[C@@H](C(=O)N(C)C)c1ccc(C)nc1C |  |  |  |  | 0.0316 |  | 1 | 3 | 29 | 18 |  |  |  |  | 
